Among the data in ChEMBL document CHEMBL4507276 (2021) are residual activity and inhibition values, retold here.

For experiment [1], the target named is Activin receptor type-2A (Homo sapiens) (UniProt P27037). The conditions noted are these: Compound concentration 1000.0 nM.
The target of experiment [2] is Aurora kinase B (Homo sapiens) (UniProt Q96GD4). As to conditions: Compound concentration 1000.0 nM.
Experiment [3] concerns the target Mitotic checkpoint serine/threonine-protein kinase BUB1 (Homo sapiens) (UniProt O43683). As to conditions: Compound concentration 1000.0 nM.
Experiment [4] addresses Calcium/calmodulin-dependent protein kinase type II subunit alpha (Homo sapiens) (UniProt Q9UQM7). As to conditions: Compound concentration 1000.0 nM.
The target of experiment [5] is Calcium/calmodulin-dependent protein kinase type II subunit gamma (Homo sapiens) (UniProt Q13555). The conditions noted are these: Compound concentration 1000.0 nM.
In experiment [6] the target is Cyclin-dependent kinase 11A (Homo sapiens) (UniProt Q9UQ88). As to conditions: Compound concentration 1000.0 nM.
Sequence of Cyclin-dependent kinase 11A (Homo sapiens) (Q9UQ88 whole entry): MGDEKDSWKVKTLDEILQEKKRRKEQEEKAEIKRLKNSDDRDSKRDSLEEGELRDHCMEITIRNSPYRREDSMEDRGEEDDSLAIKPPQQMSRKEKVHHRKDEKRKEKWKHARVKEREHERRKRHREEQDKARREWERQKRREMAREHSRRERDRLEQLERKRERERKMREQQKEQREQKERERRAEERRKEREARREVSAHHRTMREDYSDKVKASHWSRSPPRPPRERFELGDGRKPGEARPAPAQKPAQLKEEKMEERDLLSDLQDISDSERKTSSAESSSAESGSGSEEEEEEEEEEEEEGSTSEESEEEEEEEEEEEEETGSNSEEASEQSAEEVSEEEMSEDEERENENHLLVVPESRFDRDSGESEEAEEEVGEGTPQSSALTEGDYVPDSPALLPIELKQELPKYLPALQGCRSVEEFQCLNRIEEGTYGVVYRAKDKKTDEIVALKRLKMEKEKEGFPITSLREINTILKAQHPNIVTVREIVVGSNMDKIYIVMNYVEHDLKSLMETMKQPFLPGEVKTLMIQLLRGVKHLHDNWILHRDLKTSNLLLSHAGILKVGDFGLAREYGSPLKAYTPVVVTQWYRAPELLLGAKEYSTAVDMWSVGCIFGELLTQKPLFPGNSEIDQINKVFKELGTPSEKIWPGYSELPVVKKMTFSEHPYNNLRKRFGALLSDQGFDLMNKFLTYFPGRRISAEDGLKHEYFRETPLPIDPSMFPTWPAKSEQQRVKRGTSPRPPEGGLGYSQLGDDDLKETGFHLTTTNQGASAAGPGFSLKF
Experiment [7] concerns Epidermal growth factor receptor (Homo sapiens), P00533 [UNDEFINED MUTATION]. The conditions noted are these: Compound concentration 1000.0 nM.
For experiment [8], the target named is Focal adhesion kinase 1 (Homo sapiens) (UniProt Q05397). As to conditions: Compound concentration 1000.0 nM.
Experiment [9] relates to Receptor-type tyrosine-protein kinase FLT3 (Homo sapiens), P36888 [UNDEFINED MUTATION]. The conditions noted are these: Compound concentration 1000.0 nM.
Experiment [10] addresses Interleukin-1 receptor-associated kinase 1 (Homo sapiens) (UniProt P51617). The conditions noted are these: Compound concentration 1000.0 nM.
The target of experiment [11] is Tyrosine-protein kinase JAK1 (Homo sapiens) (UniProt P23458). The conditions noted are these: Compound concentration 1000.0 nM.
For experiment [12], the target named is Mitogen-activated protein kinase kinase kinase kinase 5 (Homo sapiens) (UniProt Q9Y4K4). The conditions noted are these: Compound concentration 1000.0 nM.
Experiment [13] addresses Mitogen-activated protein kinase kinase kinase 10 (Homo sapiens) (UniProt Q02779). The conditions noted are these: Compound concentration 1000.0 nM.
For experiment [14], the target named is Cyclin-dependent kinase 18 (Homo sapiens) (UniProt Q07002). As to conditions: Compound concentration 1000.0 nM.
Experiment [15] concerns Phosphatidylinositol 4,5-bisphosphate 3-kinase catalytic subunit alpha isoform (Homo sapiens), P42336 [M1043I]. As to conditions: Compound concentration 1000.0 nM.
Sequence of Phosphatidylinositol 4,5-bisphosphate 3-kinase catalytic subunit alpha isoform (Homo sapiens), P42336 [M1043I] (P42336 whole entry M1043I, canonical isoform): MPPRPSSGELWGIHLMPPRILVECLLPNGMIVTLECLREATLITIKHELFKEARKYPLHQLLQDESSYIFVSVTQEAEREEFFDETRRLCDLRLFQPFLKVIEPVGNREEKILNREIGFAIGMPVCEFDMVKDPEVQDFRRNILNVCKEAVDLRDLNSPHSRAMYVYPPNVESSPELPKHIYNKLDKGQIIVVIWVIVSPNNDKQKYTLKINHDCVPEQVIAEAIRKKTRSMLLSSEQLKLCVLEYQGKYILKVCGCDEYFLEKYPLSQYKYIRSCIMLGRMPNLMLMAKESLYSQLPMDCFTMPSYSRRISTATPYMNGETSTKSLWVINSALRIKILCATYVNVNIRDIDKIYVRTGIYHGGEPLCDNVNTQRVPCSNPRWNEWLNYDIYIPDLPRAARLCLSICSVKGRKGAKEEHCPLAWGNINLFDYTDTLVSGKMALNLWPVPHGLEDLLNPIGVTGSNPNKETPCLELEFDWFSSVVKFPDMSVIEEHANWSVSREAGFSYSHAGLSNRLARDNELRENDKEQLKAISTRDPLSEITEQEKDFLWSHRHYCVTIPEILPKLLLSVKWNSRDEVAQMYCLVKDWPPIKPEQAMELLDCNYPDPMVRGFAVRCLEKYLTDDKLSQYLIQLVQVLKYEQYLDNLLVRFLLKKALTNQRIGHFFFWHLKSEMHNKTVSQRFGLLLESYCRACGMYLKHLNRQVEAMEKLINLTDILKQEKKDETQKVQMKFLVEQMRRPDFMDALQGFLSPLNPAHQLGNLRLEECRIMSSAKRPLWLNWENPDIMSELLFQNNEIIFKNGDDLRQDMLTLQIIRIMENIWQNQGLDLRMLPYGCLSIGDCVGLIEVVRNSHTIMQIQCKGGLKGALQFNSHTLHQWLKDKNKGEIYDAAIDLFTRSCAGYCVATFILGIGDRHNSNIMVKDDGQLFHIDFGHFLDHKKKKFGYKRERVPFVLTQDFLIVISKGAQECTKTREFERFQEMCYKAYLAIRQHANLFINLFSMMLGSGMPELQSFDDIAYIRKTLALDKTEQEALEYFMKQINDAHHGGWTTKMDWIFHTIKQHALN
For experiment [16], the target named is Serine/threonine-protein kinase PRP4 homolog (Homo sapiens) (UniProt Q13523). As to conditions: Compound concentration 1000.0 nM.
Experiment [17] addresses Serine/threonine-protein kinase SIK2 (Homo sapiens) (UniProt Q9H0K1). As to conditions: Compound concentration 1000.0 nM.
In experiment [18] the target is SNF-related serine/threonine-protein kinase (Homo sapiens) (UniProt Q9NRH2). As to conditions: Compound concentration 1000.0 nM.
Experiment [19] addresses T1, Tyrosine-protein kinase receptor TYRO3 (Homo sapiens) (UniProt Q06418).
T1 sequence (whole entry): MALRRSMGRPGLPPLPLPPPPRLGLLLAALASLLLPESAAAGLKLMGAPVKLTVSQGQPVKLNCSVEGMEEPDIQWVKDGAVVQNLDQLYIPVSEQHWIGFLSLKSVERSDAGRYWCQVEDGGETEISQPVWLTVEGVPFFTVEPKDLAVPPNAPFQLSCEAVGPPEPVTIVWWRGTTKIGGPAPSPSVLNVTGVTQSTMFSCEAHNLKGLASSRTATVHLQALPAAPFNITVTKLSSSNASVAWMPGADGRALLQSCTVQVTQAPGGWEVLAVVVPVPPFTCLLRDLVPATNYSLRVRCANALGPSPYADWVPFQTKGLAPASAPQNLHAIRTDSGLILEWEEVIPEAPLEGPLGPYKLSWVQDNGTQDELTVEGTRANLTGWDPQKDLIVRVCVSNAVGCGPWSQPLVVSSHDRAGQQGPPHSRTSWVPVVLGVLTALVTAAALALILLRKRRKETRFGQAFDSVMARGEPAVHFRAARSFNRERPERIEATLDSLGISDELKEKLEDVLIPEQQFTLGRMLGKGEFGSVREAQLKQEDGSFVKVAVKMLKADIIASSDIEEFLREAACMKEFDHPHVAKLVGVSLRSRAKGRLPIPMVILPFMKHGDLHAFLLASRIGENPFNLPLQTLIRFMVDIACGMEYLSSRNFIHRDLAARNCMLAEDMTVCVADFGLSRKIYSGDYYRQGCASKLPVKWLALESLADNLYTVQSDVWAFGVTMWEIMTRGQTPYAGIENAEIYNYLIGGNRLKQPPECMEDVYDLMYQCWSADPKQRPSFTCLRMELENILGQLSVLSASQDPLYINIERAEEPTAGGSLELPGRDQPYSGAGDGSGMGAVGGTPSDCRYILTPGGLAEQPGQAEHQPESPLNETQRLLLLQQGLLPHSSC
As to conditions: Compound concentration 1000.0 nM.

Experiment [20] deals with Serine/threonine-protein kinase WNK3 (Homo sapiens) (UniProt Q9BYP7). As to conditions: Compound concentration 1000.0 nM.
Sequence of Serine/threonine-protein kinase WNK3 (Homo sapiens) (Q9BYP7 whole entry): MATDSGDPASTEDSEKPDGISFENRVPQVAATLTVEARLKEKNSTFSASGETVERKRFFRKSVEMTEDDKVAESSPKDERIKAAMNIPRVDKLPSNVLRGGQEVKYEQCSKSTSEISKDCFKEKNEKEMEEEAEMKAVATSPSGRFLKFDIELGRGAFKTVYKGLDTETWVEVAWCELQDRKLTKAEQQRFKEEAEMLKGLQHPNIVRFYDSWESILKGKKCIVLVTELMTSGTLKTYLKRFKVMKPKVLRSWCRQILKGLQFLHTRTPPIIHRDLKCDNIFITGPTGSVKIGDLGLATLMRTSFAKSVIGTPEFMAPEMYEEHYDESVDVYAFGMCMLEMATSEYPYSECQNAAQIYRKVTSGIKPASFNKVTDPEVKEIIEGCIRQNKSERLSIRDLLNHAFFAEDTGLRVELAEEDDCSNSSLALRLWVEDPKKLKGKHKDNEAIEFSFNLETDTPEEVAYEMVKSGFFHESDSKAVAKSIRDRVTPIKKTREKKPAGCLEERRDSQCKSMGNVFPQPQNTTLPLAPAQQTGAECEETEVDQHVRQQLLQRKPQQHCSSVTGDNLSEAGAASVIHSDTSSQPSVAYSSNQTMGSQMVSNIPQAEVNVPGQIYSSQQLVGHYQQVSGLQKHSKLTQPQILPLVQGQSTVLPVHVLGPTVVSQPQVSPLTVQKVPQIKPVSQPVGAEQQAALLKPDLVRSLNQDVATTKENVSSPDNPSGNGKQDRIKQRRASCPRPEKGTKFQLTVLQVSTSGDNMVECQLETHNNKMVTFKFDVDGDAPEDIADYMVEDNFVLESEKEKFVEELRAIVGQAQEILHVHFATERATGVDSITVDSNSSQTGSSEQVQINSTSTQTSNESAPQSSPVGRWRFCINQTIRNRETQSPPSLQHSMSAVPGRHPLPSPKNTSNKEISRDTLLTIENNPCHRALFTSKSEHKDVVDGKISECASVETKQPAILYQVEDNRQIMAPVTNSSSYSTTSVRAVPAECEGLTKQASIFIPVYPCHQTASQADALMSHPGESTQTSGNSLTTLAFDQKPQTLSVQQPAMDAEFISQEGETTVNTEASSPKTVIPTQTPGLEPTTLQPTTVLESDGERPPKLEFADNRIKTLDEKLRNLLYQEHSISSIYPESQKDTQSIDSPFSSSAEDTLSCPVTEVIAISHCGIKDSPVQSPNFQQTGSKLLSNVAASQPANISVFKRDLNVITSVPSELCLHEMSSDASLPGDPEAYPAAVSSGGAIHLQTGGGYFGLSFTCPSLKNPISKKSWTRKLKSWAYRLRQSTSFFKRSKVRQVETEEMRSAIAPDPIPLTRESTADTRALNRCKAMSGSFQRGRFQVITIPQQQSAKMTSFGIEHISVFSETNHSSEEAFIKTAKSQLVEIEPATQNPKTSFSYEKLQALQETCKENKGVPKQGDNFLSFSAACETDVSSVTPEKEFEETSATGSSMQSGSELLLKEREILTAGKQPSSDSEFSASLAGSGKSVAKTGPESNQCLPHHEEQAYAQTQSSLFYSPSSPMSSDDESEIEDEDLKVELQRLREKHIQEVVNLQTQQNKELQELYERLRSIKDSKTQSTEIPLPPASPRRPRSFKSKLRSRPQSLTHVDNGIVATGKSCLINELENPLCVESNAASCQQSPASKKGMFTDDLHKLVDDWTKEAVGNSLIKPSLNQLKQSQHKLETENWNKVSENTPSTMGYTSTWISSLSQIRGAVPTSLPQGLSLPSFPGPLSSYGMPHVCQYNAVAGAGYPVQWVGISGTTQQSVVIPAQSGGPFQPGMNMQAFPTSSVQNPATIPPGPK
Experiment [21] has as its target Serine/threonine-protein kinase 32B (Homo sapiens) (UniProt Q9NY57). As to conditions: Compound concentration 1000.0 nM.
The target of experiment [22] is Mitogen-activated protein kinase kinase kinase 19 (Homo sapiens) (UniProt Q56UN5). The conditions noted are these: Compound concentration 1000.0 nM.
Experiment [23] deals with T2, Tyrosine-protein kinase ZAP-70 (Homo sapiens) (UniProt P43403).
T2 sequence (whole entry): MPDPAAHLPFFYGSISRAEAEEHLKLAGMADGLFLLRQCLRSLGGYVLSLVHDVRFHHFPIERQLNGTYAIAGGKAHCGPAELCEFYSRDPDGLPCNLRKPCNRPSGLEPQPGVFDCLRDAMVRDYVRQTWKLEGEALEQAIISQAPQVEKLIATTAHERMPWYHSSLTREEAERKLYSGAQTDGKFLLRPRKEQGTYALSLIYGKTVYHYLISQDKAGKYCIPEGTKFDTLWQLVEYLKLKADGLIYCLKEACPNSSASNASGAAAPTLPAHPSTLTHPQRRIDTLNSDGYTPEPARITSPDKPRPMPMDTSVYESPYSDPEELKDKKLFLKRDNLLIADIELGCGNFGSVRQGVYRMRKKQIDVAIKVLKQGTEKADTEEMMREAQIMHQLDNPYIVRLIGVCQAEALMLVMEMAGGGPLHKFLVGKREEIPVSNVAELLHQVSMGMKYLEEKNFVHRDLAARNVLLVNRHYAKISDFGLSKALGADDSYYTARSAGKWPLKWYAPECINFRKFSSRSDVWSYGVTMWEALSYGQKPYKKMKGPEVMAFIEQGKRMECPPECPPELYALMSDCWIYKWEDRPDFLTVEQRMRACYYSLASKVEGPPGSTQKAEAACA
As to conditions: Compound concentration 1000.0 nM.

The species entered for a further experiment is Rattus norvegicus. As to conditions: Compound concentration 10.0 uM.

Sequence of Activin receptor type-2A (Homo sapiens) (P27037 whole entry): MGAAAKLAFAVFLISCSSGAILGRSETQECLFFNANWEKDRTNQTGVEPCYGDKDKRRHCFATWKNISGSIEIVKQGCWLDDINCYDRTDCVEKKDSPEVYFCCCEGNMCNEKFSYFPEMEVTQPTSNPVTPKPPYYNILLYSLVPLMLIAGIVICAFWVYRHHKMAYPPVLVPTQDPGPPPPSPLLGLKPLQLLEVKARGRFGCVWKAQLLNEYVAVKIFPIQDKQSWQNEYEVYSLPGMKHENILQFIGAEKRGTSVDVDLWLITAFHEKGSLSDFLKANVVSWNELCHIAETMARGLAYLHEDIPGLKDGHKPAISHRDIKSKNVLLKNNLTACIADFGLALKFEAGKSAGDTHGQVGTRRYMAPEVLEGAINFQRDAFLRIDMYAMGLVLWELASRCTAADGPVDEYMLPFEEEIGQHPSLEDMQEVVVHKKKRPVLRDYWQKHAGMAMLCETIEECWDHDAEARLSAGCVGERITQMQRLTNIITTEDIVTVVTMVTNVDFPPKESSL
Sequence of Calcium/calmodulin-dependent protein kinase type II subunit alpha (Homo sapiens) (Q9UQM7 whole entry): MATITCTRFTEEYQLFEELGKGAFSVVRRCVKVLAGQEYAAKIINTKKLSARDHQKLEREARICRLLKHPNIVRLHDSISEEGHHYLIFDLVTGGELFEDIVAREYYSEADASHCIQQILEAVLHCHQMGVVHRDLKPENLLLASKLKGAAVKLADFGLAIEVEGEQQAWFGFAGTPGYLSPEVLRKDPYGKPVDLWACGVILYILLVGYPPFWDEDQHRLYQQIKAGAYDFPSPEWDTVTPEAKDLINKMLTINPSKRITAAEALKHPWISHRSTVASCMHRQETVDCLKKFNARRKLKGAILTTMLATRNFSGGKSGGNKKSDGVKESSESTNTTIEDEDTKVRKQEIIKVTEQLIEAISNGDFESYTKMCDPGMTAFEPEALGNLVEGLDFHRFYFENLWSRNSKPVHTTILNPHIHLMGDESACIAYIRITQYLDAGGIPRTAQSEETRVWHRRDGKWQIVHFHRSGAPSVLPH
Sequence of Serine/threonine-protein kinase 32B (Homo sapiens) (Q9NY57 whole entry): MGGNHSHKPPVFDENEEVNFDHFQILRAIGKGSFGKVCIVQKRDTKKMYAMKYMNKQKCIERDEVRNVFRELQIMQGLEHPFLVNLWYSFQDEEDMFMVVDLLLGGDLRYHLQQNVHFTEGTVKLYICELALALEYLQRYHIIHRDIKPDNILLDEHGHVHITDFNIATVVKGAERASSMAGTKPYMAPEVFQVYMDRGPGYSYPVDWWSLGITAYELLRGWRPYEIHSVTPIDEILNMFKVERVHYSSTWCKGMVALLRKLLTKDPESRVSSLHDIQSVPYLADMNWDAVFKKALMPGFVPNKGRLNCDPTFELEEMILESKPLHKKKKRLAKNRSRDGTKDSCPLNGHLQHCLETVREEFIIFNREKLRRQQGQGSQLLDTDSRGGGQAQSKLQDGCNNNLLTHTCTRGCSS

A word on the inhibition: it is the drop in the measured response relative to a control, in per cent. With `CN(C)C(=O)Cn1cc(-c2nc(C3(c4ccc(-c5cnc(N)nc5)cc4)CC3)no2)cn1` [BI 0153], the residual activity in experiment [1] is 84%; in experiment [2] it was 41%; in experiment [3], 75%; in [4], 100%; in experiment [5] it was 98%; in [6], 89%. Besides, the residual activity in experiment [7] is 100%; in [8], 100%; in experiment [9], 100%; in experiment [10] it was 77%; in [11], 100%; in experiment [12], 89%. Also, the residual activity in [13] was 62%; in [14] it was 83%; in [15] it was 100%; in [16], 87%; in experiment [17], 100%; in experiment [18], 100%. Besides, the residual activity is 83% in experiment [19]; 87% in experiment [20]; 100% in experiment [21]; 73% in [22]; 94% in experiment [23]. Further, the inhibition in the experiment listed under Rattus norvegicus was 7.97%.
`CN(C)C(=O)Cn1cc(-c2nc([C@@](C)(c3ccc(-c4cnc(N)nc4)cc3)C3CC3)no2)cn1` [BI 665915]: the residual activity is 81% in experiment [1]; 96% in experiment [2]; 75% in experiment [3]; 96% in experiment [4]; 100% in experiment [5]; 100% in experiment [6]. Besides, the residual activity in [7] is 100%; in [8], 100%; in experiment [9] it was 100%; in experiment [10], 85%; in experiment [11], 33%; in experiment [12], 86%. The residual activity is 83% in experiment [13]; 100% in experiment [14]; 100% in [15]; 86% in experiment [16]; 93% in experiment [17]; 89% in [18]. The residual activity in experiment [19] is 100%; in experiment [20], 76%; in experiment [21], 100%; in experiment [22], 61%; in experiment [23], 100%. Also, the inhibition in the experiment listed under Rattus norvegicus was 1.51%.
